Experimental data published in patent publication US20260325533A1, “CDK INHIBITOR COMPOUNDS” (ALEKSIA THERAPEUTICS, INC., priority 2023, published 2026).
Like-named read-outs stand apart in the source and are kept apart here.

Key:
Assay type in all cases: biochemical
CDK6/CCND1 = CDK6/CCND1 (Homo sapiens, UniProt Q00534); experiment: CDK6 homogeneous time-resolved fluorescence (HTRF) kinase assay; settings: CDK6/CCND, 1 mM ATP
Procedure, shortened: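 Recombinant CDK6/CCND1 (1 nM final) was preincubated with compound for 20 min at 23 °C in HEPES buffer with MgCl2, EGTA, DTT and Tween 20. Kinase reaction then ran 60 min at 23 °C with 1 mM ATP and 50 nM ULight-4E-BP1 (Thr37/46) peptide, and was stopped with EDTA.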

CDK2/CCNE1 = CDK2/CCNE1 (Homo sapiens, UniProt P24941); experiment: CDK2 homogeneous time-resolved fluorescence (HTRF) kinase assay; settings: CDK2/CCNE
Procedure, shortened: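 IC50 derived from 11-point, half-log dilutions (usually top 10 μM) of compound, 1% DMSO. Kinase (3 nM CDK2/CCNE1) was preincubated with compound 20 min, then phosphorylated 50 nM ULight-4E-BP1 peptide at 1 mM ATP for 60 min, 23 °C. Europium-antibody TR-FRET read after EDTA stop.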

CDK4/CCND3 = CDK4/CCND3 (Homo sapiens, UniProt P11802); experiment: CDK4 homogeneous time-resolved fluorescence (HTRF) kinase assay; settings: CDK4/CCND
Procedure, shortened: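 IC50 values were derived from 11-point half-log dilutions, usually starting at 10 μM. Compound was first held for 20 min at 23 °C with 1.5 nM CDK4/CCND3. 1 mM ATP and 50 nM ULight-eIF4E-BP1 (Thr37/46) substrate were then added for 60 min, and the TR-FRET 665 nm signal was measured after EDTA stop and Eu-anti-phospho-4E-BP1 detection.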

CDK1/CCNB1 = CDK1/CCNB1 (Homo sapiens, UniProt P06493); experiment: CDK1 homogeneous time-resolved fluorescence (HTRF) kinase assay; settings: >250 nM; CDK1/CCNB; read-out: CDK1/CCNB IC50 >250 nM
Procedure, shortened: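 Kinase activity is measured as Lance signal (665 nm, or 665/615 nm ratio) from europium-labelled anti-phospho-Thr37/46 antibody binding ULight-4E-BP1 peptide. Reactions contain 0.5 nM enzyme, 1 mM ATP, 1% DMSO and run 60 min at 23 °C before EDTA quench.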

[1] = >250 nM, read-out: CDK6/CCND IC50, >250 nM
[2] = <25 nM, read-out: CDK2/CCNE IC50, <25 nM
[3] = >250 nM, read-out: CDK4/CCND IC50, >250 nM
[4] = 25-250 nM, read-out: CDK2/CCNE IC50, 25-250 nM
[5] = 25-250 nM, read-out: CDK6/CCND IC50, 25-250 nM
[6] = 25-250 nM, read-out: CDK4/CCND IC50, 25-250 nM

Sequence of CDK4/CCND3 (P11802 whole entry): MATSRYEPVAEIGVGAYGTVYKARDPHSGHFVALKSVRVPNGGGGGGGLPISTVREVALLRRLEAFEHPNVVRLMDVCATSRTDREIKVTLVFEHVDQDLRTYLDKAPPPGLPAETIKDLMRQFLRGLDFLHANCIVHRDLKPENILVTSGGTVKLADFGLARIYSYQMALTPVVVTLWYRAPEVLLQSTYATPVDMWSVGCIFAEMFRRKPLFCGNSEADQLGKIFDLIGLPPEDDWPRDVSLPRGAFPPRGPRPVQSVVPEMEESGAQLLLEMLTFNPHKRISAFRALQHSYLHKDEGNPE
Sequence of CDK4/CCND3 (P30281 whole entry partner): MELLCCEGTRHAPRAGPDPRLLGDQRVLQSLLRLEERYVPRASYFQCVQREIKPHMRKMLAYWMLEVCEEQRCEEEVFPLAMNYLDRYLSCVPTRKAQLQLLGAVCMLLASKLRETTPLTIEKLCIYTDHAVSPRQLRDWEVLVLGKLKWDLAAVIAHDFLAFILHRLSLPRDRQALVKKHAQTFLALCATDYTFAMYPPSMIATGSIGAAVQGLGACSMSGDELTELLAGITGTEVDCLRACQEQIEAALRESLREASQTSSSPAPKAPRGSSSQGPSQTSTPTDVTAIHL
Sequence of CDK6/CCND1 (Q00534 whole entry): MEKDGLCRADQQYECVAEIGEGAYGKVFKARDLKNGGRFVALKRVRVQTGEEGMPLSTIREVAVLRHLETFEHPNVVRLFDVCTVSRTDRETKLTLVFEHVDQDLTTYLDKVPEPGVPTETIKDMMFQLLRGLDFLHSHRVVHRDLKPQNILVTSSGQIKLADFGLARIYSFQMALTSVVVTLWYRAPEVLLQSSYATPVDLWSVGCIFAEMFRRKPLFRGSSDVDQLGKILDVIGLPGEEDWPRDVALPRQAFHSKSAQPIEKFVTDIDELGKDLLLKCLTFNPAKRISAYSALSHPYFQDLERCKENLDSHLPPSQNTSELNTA
Sequence of CDK6/CCND1 (P24385 whole entry partner): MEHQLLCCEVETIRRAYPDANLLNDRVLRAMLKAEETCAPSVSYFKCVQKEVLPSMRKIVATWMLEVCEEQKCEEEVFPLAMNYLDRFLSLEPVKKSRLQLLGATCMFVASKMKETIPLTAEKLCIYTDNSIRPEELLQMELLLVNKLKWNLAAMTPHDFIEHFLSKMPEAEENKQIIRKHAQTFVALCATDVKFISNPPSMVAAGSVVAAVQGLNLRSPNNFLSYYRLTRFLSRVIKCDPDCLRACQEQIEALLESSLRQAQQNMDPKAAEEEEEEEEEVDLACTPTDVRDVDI
Sequence of CDK1/CCNB1 (P06493 whole entry): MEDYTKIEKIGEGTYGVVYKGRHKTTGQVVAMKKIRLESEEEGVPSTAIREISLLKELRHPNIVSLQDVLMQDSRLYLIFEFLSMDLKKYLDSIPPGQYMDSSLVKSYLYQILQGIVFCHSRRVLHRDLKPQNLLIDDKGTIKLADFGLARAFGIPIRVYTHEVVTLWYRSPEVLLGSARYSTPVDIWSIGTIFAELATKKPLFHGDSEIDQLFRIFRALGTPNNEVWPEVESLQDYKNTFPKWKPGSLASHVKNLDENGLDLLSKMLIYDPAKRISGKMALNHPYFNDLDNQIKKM
Sequence of CDK1/CCNB1 (P14635 whole entry partner): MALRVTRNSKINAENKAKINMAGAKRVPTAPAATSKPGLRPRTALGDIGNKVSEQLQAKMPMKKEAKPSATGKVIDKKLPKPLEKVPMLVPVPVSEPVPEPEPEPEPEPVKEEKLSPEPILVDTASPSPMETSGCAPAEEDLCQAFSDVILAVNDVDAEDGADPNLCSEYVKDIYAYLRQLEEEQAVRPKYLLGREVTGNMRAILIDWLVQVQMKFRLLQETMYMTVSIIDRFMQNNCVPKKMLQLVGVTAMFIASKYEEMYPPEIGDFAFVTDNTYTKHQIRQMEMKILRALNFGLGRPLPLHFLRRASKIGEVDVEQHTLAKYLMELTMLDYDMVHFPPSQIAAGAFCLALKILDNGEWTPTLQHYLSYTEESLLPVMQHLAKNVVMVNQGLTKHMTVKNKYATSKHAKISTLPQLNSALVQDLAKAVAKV

## Cc1c(-c2nccc3cnc(Nc4ccc(S(=O)(=O)Nc5nccc(N6CCOCC6)n5)cc4)cc23)ccc2c1cnn2CC(C)(C)O [Ex 893, 4-((5-(1-(2-hydroxy-2-methylpropyl)-4-methyl-1H-indazol-5-yl)-2,6-naphthyridin-3-yl)amino)-N-(4-morpholinopyrimidin-2-yl)benzenesulfonamide]
CDK6/CCND1; [1]
  IC50: > 250 nM
CDK2/CCNE1; [2]
  IC50: < 25 nM
CDK4/CCND3; [3]
  IC50: > 250 nM
CDK1/CCNB1
  IC50: > 250 nM

## Cc1c(-c2nccc3cnc(Nc4ccc(S(=O)(=O)Nc5ncc(C(F)(F)F)cn5)cc4)cc23)ccc2c1cnn2CC(C)(C)O [Ex 894, 4-((5-(1-(2-hydroxy-2-methylpropyl)-4-methyl-1H-indazol-5-yl)-2,6-naphthyridin-3-yl)amino)-N-(5-(trifluoromethyl)pyrimidin-2-yl)benzenesulfonamide]
CDK6/CCND1; [1]
  IC50: > 250 nM
CDK2/CCNE1; [4]
  IC50: 25 to 250 nM
CDK4/CCND3; [3]
  IC50: > 250 nM
CDK1/CCNB1
  IC50: > 250 nM

## Cc1c(-c2nccc3cnc(Nc4ccc(S(=O)(=O)Nc5ncc(Cl)cn5)cc4)cc23)ccc2c1cnn2CC(C)(C)O [Ex 895, N-(5-chloropyrimidin-2-yl)-4-((5-(1-(2-hydroxy-2-methylpropyl)-4-methyl-1H-indazol-5-yl)-2,6-naphthyridin-3-yl)amino)benzenesulfonamide]
CDK6/CCND1; [1]
  IC50: > 250 nM
CDK2/CCNE1; [4]
  IC50: 25 to 250 nM
CDK4/CCND3; [3]
  IC50: > 250 nM
CDK1/CCNB1
  IC50: > 250 nM

## Cc1cnc(NS(=O)(=O)c2ccc(Nc3cc4c(-c5ccc6c(cnn6CC(C)(C)O)c5C)nccc4cn3)cc2)nc1 [Ex 896, 4-((5-(1-(2-hydroxy-2-methylpropyl)-4-methyl-1H-indazol-5-yl)-2,6-naphthyridin-3-yl)amino)-N-(5-methylpyrimidin-2-yl)benzenesulfonamide]
CDK6/CCND1; [5]
  IC50: 25 to 250 nM
CDK2/CCNE1; [2]
  IC50: < 25 nM
CDK4/CCND3; [6]
  IC50: 25 to 250 nM
CDK1/CCNB1
  IC50: > 250 nM

## COc1ccnc(NS(=O)(=O)c2ccc(Nc3cc4c(-c5ccc6c(cnn6CC(C)(C)O)c5C)nccc4cn3)cc2)n1 [Ex 897, 4-((5-(1-(2-hydroxy-2-methylpropyl)-4-methyl-1H-indazol-5-yl)-2,6-naphthyridin-3-yl)amino)-N-(4-methoxypyrimidin-2-yl)benzenesulfonamide]
CDK6/CCND1; [5]
  IC50: 25 to 250 nM
CDK2/CCNE1; [2]
  IC50: < 25 nM
CDK4/CCND3; [3]
  IC50: > 250 nM
CDK1/CCNB1
  IC50: > 250 nM

## COc1cc(OC)nc(NS(=O)(=O)c2ccc(Nc3cc4c(-c5ccc6c(cnn6CC(C)(C)O)c5C)nccc4cn3)cc2)n1 [Ex 898, N-(4,6-dimethoxypyrimidin-2-yl)-4-((5-(1-(2-hydroxy-2-methylpropyl)-4-methyl-1H-indazol-5-yl)-2,6-naphthyridin-3-yl)amino)benzenesulfonamide]
CDK6/CCND1; [1]
  IC50: > 250 nM
CDK2/CCNE1; [2]
  IC50: < 25 nM
CDK4/CCND3; [3]
  IC50: > 250 nM
CDK1/CCNB1
  IC50: > 250 nM

## Cc1cc(C#Cc2nccc3cnc(Nc4ccc(S(C)(=O)=O)cc4)cc23)sn1 [Ex 899, 5-((3-methylisothiazol-5-yl)ethynyl)-N-(4-(methylsulfonyl)phenyl)-2,6-naphthyridin-3-amine]
CDK6/CCND1; [1]
  IC50: > 250 nM
CDK2/CCNE1; [4]
  IC50: 25 to 250 nM
CDK4/CCND3; [3]
  IC50: > 250 nM
CDK1/CCNB1
  IC50: > 250 nM

## CS(=O)(=O)c1ccc(Nc2cc3c(C#Cc4ccc(C#N)s4)nccc3cn2)cc1 [Ex 900, 5-((7-((4-(methylsulfonyl)phenyl)amino)-2,6-naphthyridin-1-yl)ethynyl)thiophene-2-carbonitrile]
CDK6/CCND1; [1]
  IC50: > 250 nM
CDK2/CCNE1; [4]
  IC50: 25 to 250 nM
CDK4/CCND3; [3]
  IC50: > 250 nM
CDK1/CCNB1
  IC50: > 250 nM

## Cc1cnc(C#Cc2nccc3cnc(Nc4ccc(S(C)(=O)=O)cc4)cc23)[nH]1 [Ex 901, 5-((5-methyl-1H-imidazol-2-yl)ethynyl)-N-(4-(methylsulfonyl)phenyl)-2,6-naphthyridin-3-amine]
CDK6/CCND1; [1]
  IC50: > 250 nM
CDK2/CCNE1; [4]
  IC50: 25 to 250 nM
CDK4/CCND3; [3]
  IC50: > 250 nM
CDK1/CCNB1
  IC50: > 250 nM

## CC#Cc1nccc2cnc(Nc3ccc(S(=O)(=O)Nc4nccc(C)n4)cc3)cc12 [Ex 905, N-(4-methylpyrimidin-2-yl)-4-((5-(prop-1-yn-1-yl)-2,6-naphthyridin-3-yl)amino)benzenesulfonamide]
CDK6/CCND1; [1]
  IC50: > 250 nM
CDK2/CCNE1; [4]
  IC50: 25 to 250 nM
CDK4/CCND3; [3]
  IC50: > 250 nM
CDK1/CCNB1
  IC50: > 250 nM

## COc1cnc(NS(=O)(=O)c2ccc(Nc3cc4c(-c5ccc6c(cnn6CC(C)(C)O)c5C)nccc4cn3)cc2)nc1 [Ex 906, 4-((5-(1-(2-hydroxy-2-methylpropyl)-4-methyl-1H-indazol-5-yl)-2,6-naphthyridin-3-yl)amino)-N-(5-methoxypyrimidin-2-yl)benzenesulfonamide]
CDK6/CCND1; [1]
  IC50: > 250 nM
CDK2/CCNE1; [2]
  IC50: < 25 nM
CDK4/CCND3; [3]
  IC50: > 250 nM
CDK1/CCNB1
  IC50: > 250 nM

## Cc1c(-c2nccc3cnc(Nc4ccc(S(=O)(=O)Nc5nccc(C(F)(F)F)n5)cc4)cc23)ccc2c1cnn2CC(C)(C)O [Ex 907, 4-((5-(1-(2-hydroxy-2-methylpropyl)-4-methyl-1H-indazol-5-yl)-2,6-naphthyridin-3-yl)amino)-N-(4-(trifluoromethyl)pyrimidin-2-yl)benzenesulfonamide]
CDK6/CCND1; [1]
  IC50: > 250 nM
CDK2/CCNE1; [2]
  IC50: < 25 nM
CDK4/CCND3; [3]
  IC50: > 250 nM
CDK1/CCNB1
  IC50: > 250 nM

## Cc1ccnc(NS(=O)(=O)c2ccc(Nc3cc4c(-c5ccc6c(cnn6CC(C)(C)O)c5C)nccc4cn3)cc2)n1 [Ex 908, 4-((5-(1-(2-hydroxy-2-methylpropyl)-4-methyl-1H-indazol-5-yl)-2,6-naphthyridin-3-yl)amino)-N-(4-methylpyrimidin-2-yl)benzenesulfonamide]
CDK6/CCND1; [5]
  IC50: 25 to 250 nM
CDK2/CCNE1; [2]
  IC50: < 25 nM
CDK4/CCND3; [6]
  IC50: 25 to 250 nM
CDK1/CCNB1
  IC50: > 250 nM

## COc1nccc(C#Cc2nccc3cnc(Nc4ccc(S(C)(=O)=O)cc4)cc23)c1C [Ex 909, 5-((2-methoxy-3-methylpyridin-4-yl)ethynyl)-N-(4-(methylsulfonyl)phenyl)-2,6-naphthyridin-3-amine]
CDK6/CCND1; [1]
  IC50: > 250 nM
CDK2/CCNE1; [4]
  IC50: 25 to 250 nM
CDK4/CCND3; [3]
  IC50: > 250 nM
CDK1/CCNB1
  IC50: > 250 nM

## COc1cc(C)c(C#Cc2nccc3cnc(Nc4ccc(S(C)(=O)=O)cc4)cc23)cn1 [Ex 910, 5-((6-methoxy-4-methylpyridin-3-yl)ethynyl)-N-(4-(methylsulfonyl)phenyl)-2,6-naphthyridin-3-amine]
CDK6/CCND1; [1]
  IC50: > 250 nM
CDK2/CCNE1; [4]
  IC50: 25 to 250 nM
CDK4/CCND3; [3]
  IC50: > 250 nM
CDK1/CCNB1
  IC50: > 250 nM

## CS(=O)(=O)c1ccc(Nc2cc3c(C#Cc4cc(O)cc(F)c4)nccc3cn2)cc1 [Ex 911, 3-fluoro-5-((7-((4-(methylsulfonyl)phenyl)amino)-2,6-naphthyridin-1-yl)ethynyl)phenol]
CDK6/CCND1; [1]
  IC50: > 250 nM
CDK2/CCNE1; [4]
  IC50: 25 to 250 nM
CDK4/CCND3; [3]
  IC50: > 250 nM
CDK1/CCNB1
  IC50: > 250 nM

## COc1cc(C#Cc2nccc3cnc(Nc4ccc(S(C)(=O)=O)cc4)cc23)ccc1F [Ex 912, 5-((4-fluoro-3-methoxyphenyl)ethynyl)-N-(4-(methylsulfonyl)phenyl)-2,6-naphthyridin-3-amine]
CDK6/CCND1; [1]
  IC50: > 250 nM
CDK2/CCNE1; >250 nM, read-out: CDK2/CCNE IC50, >250 nM
  IC50: > 250 nM
CDK4/CCND3; [3]
  IC50: > 250 nM
CDK1/CCNB1
  IC50: > 250 nM

## CS(=O)(=O)c1ccc(Nc2cc3c(C#Cc4cc(C(=O)O)c(N)cc4F)nccc3cn2)cc1 [Ex 913, 2-amino-4-fluoro-5-((7-((4-(methylsulfonyl)phenyl)amino)-2,6-naphthyridin-1-yl)ethynyl)benzoic acid]
CDK6/CCND1; [1]
  IC50: > 250 nM
CDK2/CCNE1; [4]
  IC50: 25 to 250 nM
CDK4/CCND3; [3]
  IC50: > 250 nM
CDK1/CCNB1
  IC50: > 250 nM

## Cc1c(-c2nccc3cnc(Nc4ccc5c(c4)CCCS5(=O)=O)cc23)ccc2c1cnn2CC(C)(C)O [Ex 914, 6-((5-(1-(2-hydroxy-2-methylpropyl)-4-methyl-1H-indazol-5-yl)-2,6-naphthyridin-3-yl)amino)thiochromane 1,1-dioxide]
CDK6/CCND1; [5]
  IC50: 25 to 250 nM
CDK2/CCNE1; [2]
  IC50: < 25 nM
CDK4/CCND3; [6]
  IC50: 25 to 250 nM
CDK1/CCNB1
  IC50: > 250 nM

## Cc1c(-c2nccc3cnc(Nc4ccc5c(c4)CCS5(=O)=O)cc23)ccc2c1cnn2CC(C)(C)O [Ex 915, 5-((5-(1-(2-hydroxy-2-methylpropyl)-4-methyl-1H-indazol-5-yl)-2,6-naphthyridin-3-yl)amino)-2,3-dihydrobenzo[b]thiophene 1,1-dioxide]
CDK6/CCND1; [5]
  IC50: 25 to 250 nM
CDK2/CCNE1; [2]
  IC50: < 25 nM
CDK4/CCND3; [6]
  IC50: 25 to 250 nM
CDK1/CCNB1
  IC50: > 250 nM

## Cc1c(-c2nccc3cnc(Nc4cccc5ccccc45)cc23)ccc2c1cnn2CC(C)(C)O [Ex 916, 2-methyl-1-(4-methyl-5-(7-(naphthalen-1-ylamino)-2,6-naphthyridin-1-yl)-1H-indazol-1-yl)propan-2-ol]
CDK6/CCND1; [1]
  IC50: > 250 nM
CDK2/CCNE1; [4]
  IC50: 25 to 250 nM
CDK4/CCND3; [3]
  IC50: > 250 nM
CDK1/CCNB1
  IC50: > 250 nM
